These results are taken from ChEMBL document CHEMBL1201862, “PubChem BioAssay data set” (2004).

Common to all, as to assay: DTP human tumour cell line panel, 48 h
Assay [1] has as its system DU-145.
The test system of assay [2] is NCI-H460.
The subject of assay [3] is HOP-62.
Assay [4] relates to OVCAR-3.
Assay [5] has as its system SF-268.
The subject of assay [6] is OVCAR-5.
Assay [7] concerns HL-60.
Assay [8] has as its system SK-OV-3.
For assay [9], the system named is TK-10.
For assay [10], the system named is NCI/ADR-RES.
In assay [11] the test system is KM12.
Assay [12] relates to HCC 2998.
In assay [13] the test system is HCT-15.
Assay [14] has as its system MDA-N.
The subject of assay [15] is MDA-MB-435.
Assay [16] has as its system OVCAR-4.
Assay [17] concerns SF-539.
Assay [18] relates to UACC-257.
Assay [19] has as its system SNB-78.

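Method: 48-hour compound exposure of cells in 96-well plates, five concentrations, linear interpolation of endpoints. At the GI50, growth is halved.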 Activity calls are given as the source filed them. Rule as the data show it: active = GI50 up to about 1.1 µM and inactive = higher.

On to `CCC(=O)OCN1C(=O)C=CC1=O`, for which the GI50 in assay [1] is 16.6 µM (inactive); in [2], 18.6 µM (inactive); in [3], 17.8 µM (inactive); in [4], 7.16 µM (inactive); in assay [5] it was 17.1 µM (inactive); in assay [6], 18.2 µM (inactive). Further, the GI50 in assay [7] is 7.19 µM (inactive); in assay [8] it was > 43.1 µM (inactive); in [9] it was 6.21 µM (inactive); in [10], 24 µM (inactive); in [11], 16.7 µM (inactive); in assay [12], 18.6 µM (inactive). The GI50 in [13] is 22.9 µM; in assay [14], 16.9 µM (inactive); in [15], 15.2 µM (inactive); in assay [16], 17.6 µM (inactive); in assay [17], 18.3 µM (inactive); in assay [18], 9.06 µM (inactive).
As for `O=C(c1cc(Br)ccc1O)c1cc(Br)ccc1O`, the GI50 in [1] was 15.8 µM (inactive); in [2] it was 17.6 µM (inactive); in assay [3], 18.7 µM (inactive); in [4], 15.7 µM (inactive); in assay [5] it was 19.5 µM (inactive); in assay [6], 17.4 µM (inactive). Further, the GI50 in assay [7] is 22.4 µM (inactive); in assay [8], 19.4 µM (inactive); in assay [9], 18.9 µM (inactive); in assay [10], 18.8 µM (inactive); in assay [11], 17.1 µM (inactive); in assay [12], 19.1 µM (inactive). Also, the concentration for 50% growth inhibition (GI50) in assay [13] is 18.7 µM; in assay [14] it was 14.3 µM (inactive); in [15], 15.8 µM (inactive); in assay [16] it was 16.6 µM (inactive); in assay [17], 21.2 µM (inactive); in assay [18], 15.7 µM (inactive).
Consider `COc1nc2c(c(=O)n1C)NC(C(O)C(O)CO)C=N2` (stereo unspecified), for which the GI50 in assay [1], in assay [2], in [3], in assay [4], in [5] and in [6] was > 10 µM (inactive) each time. For the same compound, the GI50 in assay [7], in [8], in assay [9], in [10], in [11] and in [12] was > 10 µM (inactive) throughout. Moreover, the 50% growth inhibitory concentration (GI50) in [13] was > 10 µM; in assay [14] it was > 10 µM (inactive); in [15], > 10 µM (inactive); in [16], > 10 µM (inactive); in [17] it was > 10 µM (inactive); in assay [18], > 10 µM (inactive).
As to `COc1ccc(-c2ccccc2)c2[nH]c3c(c12)CCNC3=O`, the GI50 in assay [2], in assay [3], in assay [4], in [19], in assay [5] and in assay [6] was > 100 µM (inactive) each time. For the same compound, the GI50 was > 100 µM (inactive) in assay [7]; > 100 µM (inactive) in assay [9]; > 100 µM (inactive) in assay [11]; > 100 µM (inactive) in [12]; > 100 µM in assay [13]; > 100 µM (inactive) in assay [16]. Besides, the GI50 in assay [17] and in assay [18] was > 100 µM (inactive) each time.
Take `CC(=O)n1c2c(c(=O)n1-c1ccccc1)[S+]([O-])CCC2` (stereo unspecified): the GI50 in assay [2] was 16.7 µM (inactive); in assay [3], 11.1 µM (inactive); in assay [4] it was 57.1 µM (inactive); in assay [19], 85.9 µM (inactive); in assay [5], > 100 µM (inactive); in assay [6], > 100 µM (inactive). The GI50 was 24.4 µM (inactive) in assay [7]; > 100 µM (inactive) in [8]; > 100 µM (inactive) in [9]; 9.1 µM (inactive) in assay [11]; < 0.01 µM (active) in [12]; 21.7 µM in assay [13]. Further, the concentration for 50% growth inhibition (GI50) in assay [16] was 0.705 µM (active); in [17], 20.4 µM (inactive); in assay [18] it was 46.7 µM (inactive).
Turning to `Cc1ccc(C(=O)Nc2ccc(CP(=O)(O)O)cc2CP(=O)(O)O)cc1NC(=O)c1cccc(N)c1`, the GI50 in assay [1], in [2], in assay [3], in [4], in assay [5] and in [6] was > 100 µM (inactive) each time. Also, the GI50 in assay [7], in assay [8], in assay [9], in [10], in assay [11] and in [12] was > 100 µM (inactive) in each case. Further, the GI50 is > 100 µM in [13]; > 100 µM (inactive) in assay [14]; > 100 µM (inactive) in assay [15]; > 100 µM (inactive) in [16]; > 100 µM (inactive) in assay [17]; > 100 µM (inactive) in assay [18].
As to `CC(C)(C)OC(=O)N1C(OP(=O)(Oc2ccccc2)Oc2ccccc2)=CSc2ccccc21`, the GI50 in assay [1] was 89.9 µM (inactive); in assay [2], 29.1 µM (inactive); in assay [3], 47.6 µM (inactive); in assay [4], 31.3 µM (inactive); in assay [5], 59 µM (inactive); in [6], 68.9 µM (inactive). The GI50 in [7] is 20.1 µM (inactive); in assay [8], 57.8 µM (inactive); in assay [9], 35 µM (inactive); in assay [10], 43.2 µM (inactive); in [11], 32.8 µM (inactive); in assay [12], 39.4 µM (inactive). Moreover, the GI50 was 37.5 µM in [13]; 34 µM (inactive) in [14]; 31.3 µM (inactive) in assay [15]; 34 µM (inactive) in assay [16]; 72.8 µM (inactive) in assay [17]; 31.6 µM (inactive) in [18].
As to `CN1C2(c3ccccc3)C(C(=O)c3ccccc3)=C(C(=O)c3ccccc3)C1(c1ccccc1)c1c(-c3ccccc3)sc(-c3ccccc3)c12`, the GI50 in [2], in [3], in assay [4], in assay [19], in assay [5] and in [6] was > 100 µM (inactive) in each case. Moreover, the GI50 in assay [7] is > 100 µM (inactive); in assay [8] it was > 100 µM (inactive); in assay [9] it was > 100 µM (inactive); in assay [11] it was > 100 µM (inactive); in assay [12], > 100 µM (inactive); in assay [13], > 100 µM. The GI50 in assay [16], in assay [17] and in assay [18] was > 100 µM (inactive) throughout.
For `CC(NNC(=O)CC(=O)N(C(=O)c1ccccc1)c1ccc(Cl)cc1)c1cc2ccccc2oc1=O` (stereo unspecified), the GI50 in assay [1], in [2], in [3], in [4], in [5] and in assay [6] was > 10 µM (inactive) each time. The GI50 in [7], in assay [8], in assay [9], in assay [10], in [11] and in assay [12] was > 10 µM (inactive) throughout. In addition, the GI50 in assay [13] was > 10 µM; in [14], > 10 µM (inactive); in assay [15], > 10 µM (inactive); in [16], > 10 µM (inactive); in assay [17] it was > 10 µM (inactive); in assay [18], > 10 µM (inactive).
Turning to `O=C1CCC2c3ccccc3NCN12` (stereo unspecified), the GI50 in assay [1], in [2], in assay [3], in [4], in [5] and in [6] was > 100 µM (inactive) throughout. Also, the GI50 in assay [7], in assay [8], in assay [9], in assay [10], in assay [11] and in assay [12] was > 100 µM (inactive) in each case. The GI50 in [13] was > 100 µM; in assay [14], > 100 µM (inactive); in assay [15], > 100 µM (inactive); in assay [16], > 100 µM (inactive); in [17] it was > 100 µM (inactive); in [18], > 100 µM (inactive).
With `O=C(c1ccco1)N1CCN(C(=O)c2ccco2)C1=S`, the GI50 in assay [1] is 2.61 µM (inactive); in [2] it was 8.73 µM (inactive); in [3], 10.6 µM (inactive); in [4], 3.44 µM (inactive); in assay [5], 6.01 µM (inactive); in assay [6], 20.3 µM (inactive). Further, the GI50 in assay [7] was 3.42 µM (inactive); in assay [8] it was 17.3 µM (inactive); in [9] it was 6.31 µM (inactive); in assay [10], 21.1 µM (inactive); in assay [11], 3.93 µM (inactive); in assay [12] it was 12.4 µM (inactive). Further, the GI50 in [13] was 6.24 µM; in assay [14] it was 4.7 µM (inactive); in assay [15], 3.59 µM (inactive); in assay [16], 17.1 µM (inactive); in [17] it was 3.33 µM (inactive); in assay [18], 4.9 µM (inactive).
On to `Cc1coc2c1C(=O)C(=O)c1c-2ccc2c1CCCC2(C)C` [TANSHINONE IIA], for which the GI50 in assay [1] was 2.52 µM (inactive); in [2], 1.17 µM (inactive); in assay [3], 1.95 µM (inactive); in assay [4], 0.303 µM (active); in assay [5], 3.53 µM (inactive); in assay [6], 9.42 µM (inactive). Besides, the GI50 in assay [7] is 1.07 µM (active); in [8], 21.3 µM (inactive); in assay [9] it was 21.6 µM (inactive); in [10], 4.58 µM (inactive); in [11], 3.76 µM (inactive); in assay [12] it was 4.06 µM (inactive). In addition, the GI50 is 0.673 µM in assay [13]; 1.37 µM (inactive) in assay [14]; 1.48 µM (inactive) in [15]; 10.6 µM (inactive) in assay [16]; 2.42 µM (inactive) in [17]; 0.771 µM (active) in assay [18].

As a reminder, the GI50 is the concentration giving 50% growth inhibition.
